Assay results reported in article PMC3901242, “Determining Enzyme Kinetics for Systems Biology with Nuclear Magnetic Resonance Spectroscopy” (Metabolites, 2012).

Target: T1, phosphofructokinase (PFK, EC 2.7.1.11) (Escherichia coli, UniProt P0A796)
T1 construct: gene pfkA; native enzyme in whole-cell extract of mid-log micro-aerobic cells (sonication or glass beads), not purified; PFK-1 tetrameric; minor PFK-2 (pfkB) may be present
T1 sequence (P0A796 1-320): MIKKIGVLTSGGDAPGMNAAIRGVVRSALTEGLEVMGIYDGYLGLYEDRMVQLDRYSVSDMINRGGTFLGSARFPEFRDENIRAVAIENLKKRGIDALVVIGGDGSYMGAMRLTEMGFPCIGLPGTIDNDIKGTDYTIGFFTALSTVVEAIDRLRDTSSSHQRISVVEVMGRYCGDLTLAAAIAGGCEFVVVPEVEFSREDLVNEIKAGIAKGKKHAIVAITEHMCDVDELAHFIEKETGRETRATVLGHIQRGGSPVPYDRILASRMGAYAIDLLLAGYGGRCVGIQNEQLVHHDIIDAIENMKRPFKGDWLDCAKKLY
Assay: […]-NMR progress curves, global fit to irreversible bi-substrate Hill equation with negative allosteric modifier
Type: biochemical
Conditions: allosteric inhibitor; co-substrates F6P and ATP; PEP 4 and 8 mM initial; 1 mM Mg2+; 100 mM PIPES pH 7.2, 25 °C; cell extract

C=C(OP(=O)(O)O)C(=O)O [PEP]
Fitted parameters ^b: 0.0863 ± 0.0001 mM
